Earlier results in patent US8828946B2, “Composition comprising interleukin-1 receptor antagonist and corticosteroid” (Orthogen AG, priority 2009, dated 2014).

Columns and labels:
[1] = system: medial knee osteoarthritis ri degree IV and retropatellar; conditions: Case V; injections in the past (patient history)
[2] = system: moderate knee osteoarthritis ab degree II-III; conditions: Case III; injections into the knee in the past (patient history)
impingement le shoulder = conditions: Case IV; previous injections (patient history)
[3] = system: partial rotator cuff rupture and subacromial constriction with complete shoulder stiffness le; conditions: Case IX; numerous injections into the left shoulder (patient history)
low facet arthrosis = conditions: Case VII; in-patient injections into the low facets (patient history)
[4] = system: moderate rhizarthrosis ri; conditions: Case II; injections in the past (patient history)

| Compound | outcome of previous treatment [1] | outcome of previous treatment [2] | outcome of previous treatment (impingement le shoulder) | outcome of previous treatment [3] | outcome of previous treatment (low facet arthrosis) | outcome of previous treatment [4] | effect in the treatment of osteoarthritis and degenerative spinal diseases (osteoarthritis; Anakinra alone) | effect in the treatment of osteoarthritis (osteoarthritis; alone, compared to a placebo treatment) |
| --- | --- | --- | --- | --- | --- | --- | --- | --- |
| hyaluronic acid | without clinical success | unsuccessful | – | – | – | – | – | – |
| C[C@]12CCC(=O)C=C1CC[C@@H]1[C@@H]2C(=O)C[C@@]2(C)[C@H]1CC[C@]2(O)C(=O)CO [cortisone] | without clinical success | unsuccessful | without success | without success | without success | without success | – | – |
| Anakinra | – | – | – | – | – | – | does not show any effect | did not show any effects |
